# What was measured:
# [1] = target: T1, Tyrosine-protein phosphatase non-receptor type 11 (Homo sapiens, UniProt Q06124); assay: Allosteric inhibition of recombinant full length 6His-tagged SHP2 (2 to 527 residues) (unknown origin) expressed in Escherichia coli using DiFMUP as substrate incubated for 15 mins by microplate reader analysis
# T1 sequence (Q06124 whole entry): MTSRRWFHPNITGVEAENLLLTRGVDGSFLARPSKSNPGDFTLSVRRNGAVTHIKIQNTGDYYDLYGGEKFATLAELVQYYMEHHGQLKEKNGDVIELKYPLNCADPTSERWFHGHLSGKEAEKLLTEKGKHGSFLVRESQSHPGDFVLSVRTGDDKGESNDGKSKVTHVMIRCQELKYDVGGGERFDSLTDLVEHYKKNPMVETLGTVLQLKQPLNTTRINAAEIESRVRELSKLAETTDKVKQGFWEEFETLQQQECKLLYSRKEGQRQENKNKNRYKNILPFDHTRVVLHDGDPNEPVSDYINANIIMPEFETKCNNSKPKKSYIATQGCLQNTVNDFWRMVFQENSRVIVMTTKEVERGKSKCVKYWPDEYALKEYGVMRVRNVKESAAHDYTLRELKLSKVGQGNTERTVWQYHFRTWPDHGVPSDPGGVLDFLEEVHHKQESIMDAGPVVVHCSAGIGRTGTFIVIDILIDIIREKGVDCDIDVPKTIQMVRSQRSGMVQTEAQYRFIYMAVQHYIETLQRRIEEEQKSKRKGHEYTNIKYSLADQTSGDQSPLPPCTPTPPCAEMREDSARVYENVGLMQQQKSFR
# [2] = target: T2, Mitogen-activated protein kinase; ERK1/ERK2 (Homo sapiens, UniProt P27361+P28482); assay: Inhibition of ERK1/2 phosphorylation at Thr202/Tyr204 residues in human KYSE520 cells incubated for 1 hrs by Western blot analysis; assay type: cell-based
# [3] = Metabolic stability in mouse liver microsome assessed as intrinsic clearance at […] preincubated for 5 mins followed by NADPH addition and measured after 20 mins by LC-MS analysis; assay type: ADME; conditions: liver microsomes, dose 2.5 µM, time 25 min, read-out: CLH
# [4] = Metabolic stability in human liver microsome assessed as intrinsic clearance at […] preincubated for 5 mins followed by NADPH addition and measured after 20 mins by LC-MS analysis; assay type: ADME; conditions: liver microsomes, dose 2.5 µM, time 25 min, read-out: CLH
# [5] = Metabolic stability in mouse hepatocyte assessed as intrinsic clearance incubated for 1 to 2 hrs by LC-MS analysis; assay type: ADME, cell-based; conditions: hepatocytes, time 1-2 hrs, read-out: CLH
# [6] = Metabolic stability in human hepatocyte assessed as intrinsic clearance incubated for 1 to 2 hrs by LC-MS analysis; assay type: ADME, cell-based; conditions: hepatocytes, time 1-2 hrs, read-out: CLH
# [7] = Permeability of compound from apical to basolateral side in LLC-PK1 cells incubated for 2 hrs by LC-MS/MS analysis; assay type: ADME, cell-based, Sus scrofa; conditions: pig, read-out: permeability
# [8] = Solubility of the compound in FaSSIF at 1 mg/ml incubated for 24 hrs by LC-MS/MS analysis; assay type: physicochemical
# [9] = Clearance in CD-1 mouse at 1 mg/kg, iv measured upto 8 hrs by LC-MS/MS method; assay type: ADME, organism-based; conditions: in vivo
# [10] = Half life in CD-1 mouse at 1 mg/kg, iv measured upto 8 hrs by LC-MS/MS method; assay type: ADME, organism-based; conditions: in vivo
# [11] = Volume of distribution at steady state in CD-1 mouse at 1 mg/kg, iv measured upto 8 hrs by LC-MS/MS method; assay type: ADME, organism-based; conditions: in vivo, read-out: Vdss
# [12] = Cmax in CD-1 mouse at 10 mg/kg, po measured upto 24 hrs by LC-MS/MS method; assay type: ADME, organism-based; design: dose 10 mg/kg, time < 24 hrs, route po; conditions: in vivo
# [13] = Tmax in CD-1 mouse at 10 mg/kg, po measured upto 24 hrs by LC-MS/MS method; assay type: ADME, organism-based; conditions: in vivo
# [14] = AUClast in CD-1 mouse at 10 mg/kg, po measured upto 24 hrs by LC-MS/MS method; assay type: ADME, organism-based; design: time < 24 hrs, dose 10 mg/kg, route po; conditions: in vivo
# [15] = Oral bioavailability in CD-1 mouse at 10 mg/kg measured upto 24 hrs by LC-MS/MS method; assay type: ADME, organism-based; conditions: in vivo
# [16] = target: T2, Mitogen-activated protein kinase; ERK1/ERK2; conditions: KYSE520, time 1.0 hrs
# [17] = target: T2, Mitogen-activated protein kinase; ERK1/ERK2; conditions: KYSE520, time 1.0 hrs; remark: listed apart in the source
# [18] = AUC(0 to infinity) in CD-1 mouse at 10 mg/kg, po measured upto 24 hrs by LC-MS/MS method; assay type: ADME, organism-based; design: time < 24 hrs, dose 10 mg/kg, route po; conditions: in vivo
# [19] = Toxicity in athymic nude Foxn1nu mouse xenografted with human MIA PaCa-2 cells harboring KRAS G12C mutant assessed as body weight loss at 30 to 100 mg/kg,po administrated for 28 days and measured every 3 to 4 days relative to control; assay type: organism-based; conditions: in vivo, 672 h, dose 30-100 mg/kg, time 28 day
# [20] = system: MIA PaCa-2; assay: Antitumor activity against human MIA PaCa-2 cells harboring KRAS G12C mutant xenografted in athymic nude Foxn1nu mouse assessed as tumor growth inhibition at 30 mg/kg,po administrated for 28 days and measured every 3 to 4 days relative to control; assay type: functional; conditions: time 28 day
# [21] = system: MIA PaCa-2; assay: Antitumor activity against human MIA PaCa-2 cells harboring KRAS G12C mutant xenografted in athymic nude Foxn1nu mouse assessed as tumor growth inhibition at 100 mg/kg,po administrated for 28 days and measured every 3 to 4 days relative to control; assay type: functional; conditions: time 28 day
# T2 sequence (P27361 whole entry, looked up): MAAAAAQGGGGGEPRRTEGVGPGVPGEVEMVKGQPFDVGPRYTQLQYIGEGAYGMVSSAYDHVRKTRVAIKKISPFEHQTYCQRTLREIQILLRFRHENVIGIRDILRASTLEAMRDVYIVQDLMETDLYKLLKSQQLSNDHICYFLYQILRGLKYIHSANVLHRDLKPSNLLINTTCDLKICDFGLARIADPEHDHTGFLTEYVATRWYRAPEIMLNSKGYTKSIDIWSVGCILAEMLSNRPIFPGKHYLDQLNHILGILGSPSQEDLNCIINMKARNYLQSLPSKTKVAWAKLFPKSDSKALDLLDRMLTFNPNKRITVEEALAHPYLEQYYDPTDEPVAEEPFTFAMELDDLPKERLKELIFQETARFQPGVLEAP
# T2 sequence (P28482 whole entry, looked up): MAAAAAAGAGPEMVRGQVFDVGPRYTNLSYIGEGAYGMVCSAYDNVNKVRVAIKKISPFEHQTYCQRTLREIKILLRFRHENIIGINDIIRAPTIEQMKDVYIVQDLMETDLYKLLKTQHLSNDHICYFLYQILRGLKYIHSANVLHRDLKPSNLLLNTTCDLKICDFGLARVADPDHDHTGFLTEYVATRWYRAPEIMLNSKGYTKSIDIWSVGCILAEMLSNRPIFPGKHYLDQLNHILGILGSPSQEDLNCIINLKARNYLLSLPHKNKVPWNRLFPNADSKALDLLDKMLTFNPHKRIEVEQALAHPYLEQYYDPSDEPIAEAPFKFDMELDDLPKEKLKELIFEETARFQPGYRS
IC50 [2],CLint scaled at […] [3],CLint scaled at […] [4],CLint scaled [5],CLint scaled at 10000 µM [6],Papp A→B at 2 h [7],solubility at 24 h [8],clearance [9],half-life [10],Vd [11],Cmax [12],Tmax [13],bioavailability [15],fIC50 [16],fIC90 [16],fIC50 [17],fIC90 [17],SMILES,other results
58 nM,24 mL/min/kg,3 mL/min/kg,16 mL/min/kg,5 mL/min/kg,13 ×10⁻⁶ cm/s,894 µg/mL,34.3 mL/min/kg,1.48 h,3.46 L/kg,533 ng/mL,2 h,58.1%,0.244 µg/mL,2.2 µg/mL,0.244 µg/mL,2.2 µg/mL,C[C@@H]1OCC2(CCN(c3cnc4nc(Sc5ccnc(N)c5Cl)ccc4n3)CC2)[C@@H]1N,IC50 [1]: 72 nM; AUC(0-t) at 24 h [14]: 2820 ng·h/mL
5 nM,35 mL/min/kg,9 mL/min/kg,28 mL/min/kg,11 mL/min/kg,11 ×10⁻⁶ cm/s,271 µg/mL,19.2 mL/min/kg,1.44 h,1.74 L/kg,649 ng/mL,4 h,66.5%,0.06 µg/mL,0.535 µg/mL,0.06 µg/mL,0.535 µg/mL,Nc1nccc(Sc2ccc3nc(N4CCC5(CC4)Cc4ncccc4[C@H]5N)cnc3n2)c1Cl,AUC(0-inf) [18]: 5780 ng·h/mL; Activity [19]: < 5%; TGI [20]: 38%; TGI [21]: 75%
